Experimental data: ChEMBL document CHEMBL1201862, “PubChem BioAssay data set” (2004)
Active and inactive are the calls of the source.

Columns and labels:
[1] = Luminescence Cell-Based Dose Retest to Confirm Inhibitors of Cancer Stem Cells. [Related pubchem assays (depositor defined):AID2717, AID2721]; format: functional; settings: Homo sapiens
[2] = tested on: A-375; assay: proliferation inhibition in MITF-low A375 cells – cell-based, cherry-pick samples, set 2, counter-screen for MITF modulator project, dose response (AID 540335); format: functional; settings: Homo sapiens
[3] = target: T1, Microphthalmia-associated transcription factor (Homo sapiens, UniProt O75030); assay: reducers of TRPM1 reporter luminescence, concentration series – cell-based, SK-MEL-5, cherry-picked, set 3, MITF inhibitor project, dose response (AID 493073); format: functional;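 further: SK-MEL-5 melanoma cells with luciferase driven by the MITF target TRPM1 promoter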
T1 sequence (O75030 whole entry): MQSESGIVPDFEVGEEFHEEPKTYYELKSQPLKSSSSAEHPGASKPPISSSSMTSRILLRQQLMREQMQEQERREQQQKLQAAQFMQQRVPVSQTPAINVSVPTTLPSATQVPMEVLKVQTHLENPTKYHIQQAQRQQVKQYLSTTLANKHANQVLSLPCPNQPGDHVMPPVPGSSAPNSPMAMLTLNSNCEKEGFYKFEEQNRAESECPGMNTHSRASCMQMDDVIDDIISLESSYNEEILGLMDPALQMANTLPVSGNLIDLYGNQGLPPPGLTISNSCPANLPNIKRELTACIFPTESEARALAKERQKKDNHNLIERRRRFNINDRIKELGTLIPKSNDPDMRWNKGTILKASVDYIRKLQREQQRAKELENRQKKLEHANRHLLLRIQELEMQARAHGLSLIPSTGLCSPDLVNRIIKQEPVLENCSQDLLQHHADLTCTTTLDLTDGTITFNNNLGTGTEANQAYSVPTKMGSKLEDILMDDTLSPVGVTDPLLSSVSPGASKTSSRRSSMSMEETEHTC

[4] = viability of HCT116 lacking mutant beta-catenin – cell-based, human colon tumor, dose response (AID 1045); format: functional;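 further: HCT116 colon tumor cells with beta catenin knocked out; cells exposed to compound for 60 hours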
[5] = viability of PTEN-deleted HCT116 cells – cell-based, HCT116 PTEN knockout, dose response (AID 1047); format: functional;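 further: HCT116 colon tumor cells with PTEN knocked out; cells exposed to compound for 60 hours before readout; potency for loss of cell viability measured by luminescence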
[6] = tested on: BJ; assay: cells; format: functional, cell-based; settings: Homo sapiens
[7] = target: Phospholipase A2 (Homo sapiens, UniProt P04054); assay: phospholipase A2 activity inhibition – biochemical, set 2, counter-screen for ATG4B inhibitor project, dose response (AID 588586); format: functional
Sequence of Phospholipase A2 (P04054 whole entry): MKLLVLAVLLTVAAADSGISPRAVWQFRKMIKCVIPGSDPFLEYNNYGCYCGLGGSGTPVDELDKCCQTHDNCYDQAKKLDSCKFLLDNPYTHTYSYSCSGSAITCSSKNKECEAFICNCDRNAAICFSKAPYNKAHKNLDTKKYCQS

[8] = target: Cysteine protease ATG4B (Homo sapiens, UniProt Q9Y4P1); assay: autophagin-1 cysteine protease inhibition – biochemical, fluorescence, set 2, dose response (AID 588584); format: functional
Sequence of Cysteine protease ATG4B (Q9Y4P1 whole entry): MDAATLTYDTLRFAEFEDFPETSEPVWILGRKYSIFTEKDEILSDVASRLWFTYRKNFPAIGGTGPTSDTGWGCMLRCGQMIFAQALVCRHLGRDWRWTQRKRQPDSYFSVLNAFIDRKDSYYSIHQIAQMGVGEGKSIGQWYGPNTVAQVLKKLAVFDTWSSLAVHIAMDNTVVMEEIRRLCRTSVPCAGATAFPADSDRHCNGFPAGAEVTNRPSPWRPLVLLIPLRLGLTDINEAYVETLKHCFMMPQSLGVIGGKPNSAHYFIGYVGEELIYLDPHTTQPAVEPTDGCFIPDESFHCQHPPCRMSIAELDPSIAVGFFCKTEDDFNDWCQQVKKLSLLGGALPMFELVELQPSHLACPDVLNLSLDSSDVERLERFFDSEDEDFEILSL

[9] = tested on: BJ; assay: BJ-TERT-LT-ST fibroblast viability loss – cell-based, RAS-independent, luminescence, dose response (AID 1935); format: functional; settings: Homo sapiens;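 further: BJ fibroblasts immortalized with TERT plus LT and ST oncogenes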
[10] = non-specific 3'UTR reporter inhibition in Clone20-Shn3RL – cell-based, Renilla luciferase, cherry-picked, counter-screen for Shn3 inhibitor project, dose response (AID 624133); format: functional
[11] = tested on: BJ; assay: BJ-TERT fibroblast viability loss – cell-based, RAS-independent, luminescence, dose response (AID 1933); format: functional; settings: Homo sapiens
[12] = DRD fibroblast viability loss – cell-based, non-viral oncogenic, luminescence, dose response (AID 1934); format: functional; settings: Homo sapiens
[13] = reduction of Shn3 3'UTR-driven luciferase in osteoblasts – cell-based, Clone20 osteoblasts, firefly luciferase, cherry-picked, dose response (AID 624132); format: functional;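 further: firefly luciferase luminescence from reporter carrying the Shn3 3'UTR in osteoblasts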

SMILES	AC50 [1]	AC50 [2]	AC50 [3]	EC50 [4]	EC50 [5]	EC50 [6]	IC50 [7]	IC50 [8]	EC50 [9]	AC50 [10]	EC50 [11]	EC50 [12]	AC50 [13]
Cc1ccc(NC2=C(Cl)C(=O)c3ccccc3C2=O)cc1	1.17 µM (active)	12.6 µM (active)	5.25 µM (active)	4.88 µM (active)	10.7 µM (active)	–	–	–	–	–	–	–	–
O=C(OCCN1C(=O)c2cccc3c(N4CCOCC4)ccc(c23)C1=O)c1ccccc1Cl	–	–	–	–	–	21.5 µM (active)	> 80 µM (inactive)	> 80 µM (inactive)	> 150 µM (inconclusive)	6.25 µM (active)	17.2 µM (active)	18.8 µM (active)	3.06 µM (active)
